Source: the supplement of paper PMC11208160

Assay: recombinant barcode read abundance after kanamycin selection (control-corrected) (log10(CPM+1)); higher = more efficient recombination; sequences stand for … in AGTGCAGAGAAAATCGGCCAGTTTTCTCTGCCTGCAGTCCGCATGCCGT…AGATTTATGCAGCGGACTGCCTTTCTCCCAAAGTGATAAACCGGACAGTATCATGGACCGGTTTTCCCGGTAATCCGTATTTGCAAGGTTGGTTTCACT; site = the 11-nt target
Description: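 Pooled E. coli target-specificity screen for the IS621 bridge recombinase. Each library plasmid pairs an 11-nt target (CT core) with a bridge RNA whose target-binding loop (9-nt LTG + 4-nt RTG) is reprogrammed; the rest of the 177-nt WT IS621 bridge RNA scaffold is fixed. The plasmid is co-electroporated with a WT donor plasmid; recombinase is induced with 0.1 mM IPTG and recombinants are selected on kanamycin. Recombinant barcodes are sequenced, converted to CPM, averaged over two biological replicates and corrected by the unselected control CPM. Molecule = full bridge RNA written as DNA: LTG = specificity nt 1-9, RTG = reverse complement of specificity nt 8-11, in the WT scaffold.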
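Also: IS621 recombinase and bridge RNA in Escherichia coli cells.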

Sequence	recombinant barcode read abundance (log10)
ACCTGTACTTGGGTTCTAACCTGTTGCCT (site ACCAGTACTAG)	0.0531
ACCTGTACTTGGGTTCTAACCTGTTGCCT (site ACCCGTACTAG)	0.147
ACCTGTACTTGGGTTCTAACCTGTTGCCT (site ACCGGTACTAG)	0.0956
ACCTGTACTTGGGTTCTAACCTGTTGCCT (site ACCTGTACTAG)	0.183
ACCTTAGCTTGGGTTCTAACCTGTTGCGG (site ACCCTAACTCC)	0.263
ACCTTAGCTTGGGTTCTAACCTGTTGCGG (site ACCTTAGCTCC)	1.79
ACCTTGCCTTGGGTTCTAACCTGTTGCCT (site ACATTGCCTAG)	0.178
ACCTTGCCTTGGGTTCTAACCTGTTGCCT (site ACCTTGCCTAG)	0.012
ACCTTGCCTTGGGTTCTAACCTGTTGCCT (site ACGTTGCCTAG)	0.875
ACCTTGCCTTGGGTTCTAACCTGTTGCCT (site ACTTTGCCTAG)	0.0414
ACGAATCCTTGGGTTCTAACCTGTTGCTT (site ACGAATCCTAA)	0.423
ACGAATCCTTGGGTTCTAACCTGTTGCTT (site ACGACTCCTAA)	0.0122
ACGAATCCTTGGGTTCTAACCTGTTGCTT (site ACGAGTCCTAA)	0.461
ACGAATCCTTGGGTTCTAACCTGTTGCTT (site ACGATTCCTAA)	0.0624
ACGACTCCTTGGGTTCTAACCTGTTGCTG (site ACGACTCCTCA)	0.485
ACGACTCCTTGGGTTCTAACCTGTTGCTG (site ACGCCTCCTCA)	0.0825
ACGACTCCTTGGGTTCTAACCTGTTGCTG (site ACGGCTCCTCA)	0.0665
ACGACTCCTTGGGTTCTAACCTGTTGCTG (site ACGTCTCCTCA)	0.0836
ACGACTCCTTGGGTTCTAACCTGTTGCTT (site ACGAATCCTAA)	0.224
ACGACTCCTTGGGTTCTAACCTGTTGCTT (site ACGACTCCTAA)	0.0167
ACGACTCCTTGGGTTCTAACCTGTTGCTT (site ACGAGTCCTAA)	0.0152
ACGACTCCTTGGGTTCTAACCTGTTGCTT (site ACGATTCCTAA)	0.0399

Sequence	recombinant barcode read abundance (log10)
ACGACTTCTTGGGTTCTAACCTGTTGCCT (site ACGACTACTAG)	0.0265
ACGACTTCTTGGGTTCTAACCTGTTGCCT (site ACGACTCCTAG)	0.167
ACGACTTCTTGGGTTCTAACCTGTTGCCT (site ACGACTGCTAG)	0
ACGACTTCTTGGGTTCTAACCTGTTGCCT (site ACGACTTCTAG)	0.731
ACGAGTCCTTGGGTTCTAACCTGTTGCTT (site ACGAATCCTAA)	0.365
ACGAGTCCTTGGGTTCTAACCTGTTGCTT (site ACGACTCCTAA)	0.161
ACGAGTCCTTGGGTTCTAACCTGTTGCTT (site ACGAGTCCTAA)	0.606
ACGAGTCCTTGGGTTCTAACCTGTTGCTT (site ACGATTCCTAA)	0.0892
ACGCCTCCTTGGGTTCTAACCTGTTGCTG (site ACGACTCCTCA)	0.0447
ACGCCTCCTTGGGTTCTAACCTGTTGCTG (site ACGCCTCCTCA)	0.384
ACGCCTCCTTGGGTTCTAACCTGTTGCTG (site ACGGCTCCTCA)	0.269
ACGCCTCCTTGGGTTCTAACCTGTTGCTG (site ACGTCTCCTCA)	0.175
ACGCGGCCTTGGGTTCTAACCTGTTGCCT (site ACGCGGCCTAG)	0.103
ACGCGGCCTTGGGTTCTAACCTGTTGCCT (site CCGCGGCCTAG)	0.42
ACGCGGCCTTGGGTTCTAACCTGTTGCCT (site GCGCGGCCTAG)	0.147
ACGCGGCCTTGGGTTCTAACCTGTTGCCT (site TCGCGGCCTAG)	0.108
ACGCGTGCTTGGGTTCTAACCTGTTGCGG (site ACGCGTGCTCC)	0.727
ACGCGTGCTTGGGTTCTAACCTGTTGCGG (site CTAGTAACTTG)	0.019
ACGGAATCTTGGGTTCTAACCTGTTGCCG (site ACGGAATCTCG)	0.46
ACGGAATCTTGGGTTCTAACCTGTTGCCG (site TAAATCCCTTC)	0.245
ACGGAGTCTTGGGTTCTAACCTGTTGCTA (site ACGGAGTCTTA)	1.3
ACGGAGTCTTGGGTTCTAACCTGTTGCTA (site TACAGACCTCT)	0.0854

Sequence	recombinant barcode read abundance (log10)
ACGGCTACTTGGGTTCTAACCTGTTGCTT (site ACGGCTACTAA)	0.83
ACGGCTACTTGGGTTCTAACCTGTTGCTT (site GGTTAGTCTCG)	0.0618
ACGGCTTCTTGGGTTCTAACCTGTTGCTA (site ACGGCTTCTTA)	0.494
ACGGCTTCTTGGGTTCTAACCTGTTGCTA (site AGGGCTTCTTA)	0.485
ACGGGTGCTTGGGTTCTAACCTGTTGCCT (site ACGGGTGCTAG)	1.86
ACGGGTGCTTGGGTTCTAACCTGTTGCCT (site ACGGTTGCTAG)	0.103
ACGTCACCTTGGGTTCTAACCTGTTGCCT (site ACGTCACCTAG)	0.536
ACGTCACCTTGGGTTCTAACCTGTTGCCT (site CCGTCACCTAG)	0.0656
ACGTCACCTTGGGTTCTAACCTGTTGCCT (site GCGTCACCTAG)	0.221
ACGTCACCTTGGGTTCTAACCTGTTGCCT (site TCGTCACCTAG)	0.17
ACGTGGACTTGGGTTCTAACCTGTTGCTA (site ACGTGGACTTA)	1.06
ACGTGGACTTGGGTTCTAACCTGTTGCTA (site GACAATGCTAT)	0.181
ACTAAACCTTGGGTTCTAACCTGTTGCCT (site ACTAAACCTAG)	0.866
ACTAAACCTTGGGTTCTAACCTGTTGCCT (site GCTAACCCTAG)	0.246
ACTAATCCTTGGGTTCTAACCTGTTGCTT (site ACTAATCCTAA)	0.236
ACTAATCCTTGGGTTCTAACCTGTTGCTT (site CCTAATACTAA)	0.105
ACTAGGACTTGGGTTCTAACCTGTTGCGA (site ACTAGGACTAC)	0.0787
ACTAGGACTTGGGTTCTAACCTGTTGCGA (site ACTAGGACTCC)	1.43
ACTAGGACTTGGGTTCTAACCTGTTGCGA (site ACTAGGACTGC)	0.0331
ACTAGGACTTGGGTTCTAACCTGTTGCGA (site ACTAGGACTTC)	2.27
ACTAGGTCTTGGGTTCTAACCTGTTGCTA (site ACTAGCTCTTA)	0.0718
ACTAGGTCTTGGGTTCTAACCTGTTGCTA (site ACTAGGTCTTA)	1.04
